Laboratory results reported in patent US9518038B2, “Condensation product of theanine derivative and carboxylic acid coumarin derivative, its intermediate, preparation method and use thereof” (SHANDONG YINGDONG YINGHAO BIOTECHNOLOGY, INC., priority 2012, dated 2016).
Marks after values point to notes of the source that are not given here.

What was measured:
[1] = system: human breast cancer cells MDA-MB231 xenograft; test: In-vivo growth of MDA-MB231 xenografts in nude mice; set-up: species or system BALB/c nude mice; conditions: Mus musculus, MDA-MB-231, ip, MB-231 xenograft, vs DMSO solvent control, read-out: Curative effect (inhibition rate %) of tumor weight; for inhibition in vivo at 60 mg/kg: 60 mg/kg intraperitoneal once a day; for inhibition in vivo at 90 mg/kg: 90 mg/kg intraperitoneal once a day
Method: (§1) RPMI1640 and DMEM culture solutions: Hyclone Company; inactivated fetal bovine serum: Hyclone Company, preserved at −20° C.; trypsin: Amersco Company; and 0.4% trypan blue: Sigma Company;
(§2) (3) Observation of growth of tumors in nude mice: the activities (including food intake, traits of urine and stool, mental state and the like) of the nude mice and the tumor growth time and growth situation of the transplanted tumors were observed every day, the body weight and the size of the tumors were measured once every 2-3 days. The long diameter a and the short diameter b (mm) of each tumor were measured by a vernier caliper to calculate the volume, wherein the volume V=π1/2·ab^2 (mm^3);
(§3) (4) sacrifice of animals: the mice were anesthetized and photoed after treatment experiments; the nude mice were sacrificed by breaking neck, the tumor tissues were stripped under sterile conditions and the weight of the tumors was weighed; and the effects of the drugs on pathology and toxicity of the various organs and tissues were detected.

NF-κB = test: Western Blotting, NF-κB level; type: cell-based; conditions: human liver cancer cells, Lewis lung cancer cells and other cancer cell lines and tumor tissues, read-out: Effective concentration (IC50) for inhibition of NF-κB
From the text: (§4) Antibodies: primary antibodies of VEGFR, EGFR, c-Met, K-Ras, H-Ras, Akt, NF-κB, Cyclin D1, ER-alpha, Dvl-1, Dvl-2, Dvl-3, MMP-9, MMP2, β-catenin, Bcl-2, Bax, p53, p21, E-cadherin and Caspase3 protein, purchased from American Cell Signaling Technology Company and Santa Cruz Technology Company; and H3 acetylation, H4 acetylation and HDAC (HDAC3, HDAC4 and the like) Antibody Sample Kits, purchased from Cell Signaling Technology Company of the U.S.
(§5) (3) polyacrylamide gel electrophoresis (SDS-PAGE): an equal amount of protein lysate sample was used to separate protein, film transfer, and blocking, treated with appropriate primary antibodies and secondary antibodies in sequence, and the film was washed, then the color was developed with ECL kit, and a blot protein band was detected by exposure of an X-ray film; and a Gel-Pro Analyzer was used for quantitative analysis of gray degree, optical density value of the control group and the drug treatment group in various concentration were respectively compared with that of internal reference, the obtained ratios were respectively compared with the control group, and the protein expression level was semi-quantified.

[2] = system: human lymphoma cells U937; test: MTT growth inhibition, U937 cells; type: cell-based; conditions: Homo sapiens, U-937, 72 h after treatment, read-out: Drug concentration (IC50) at which 50% cancer cells survived
Method in brief: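 At 48 h and 72 h after dosing, MTT was added for 4 h in serum-free DMEM, formazan was dissolved in DMSO and absorbance read at 570 nm. Relative survival was calculated against untreated cell control, and IC50 derived by regression from three repeat experiments.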

p21 = test: Western Blotting, increase of p21 level; type: cell-based; conditions: liver cancer cells, Lewis lung cancer cells and other cancer cell lines and tumor tissue protein lysates, 48 h treatment, read-out: Effective concentration to increase p21 by 50%
From the text: as §4, §5

HDAC3 [3] = test: Western Blotting, HDAC3 level; type: cell-based; conditions: human liver cancer cells, Lewis lung cancer cells and other cancer cell lines and tumor tissues, read-out: Effective concentration (IC50) for inhibition of HDAC3
From the text: as §4, §5

human neuroma cells D54 = test: MTT growth inhibition, D54 cells; type: cell-based; conditions: Homo sapiens, 72 h after treatment, read-out: Drug concentration (IC50) at which 50% cancer cells survived
[4] = system: human pancreatic cancer cells PANC-1 xenograft; test: In-vivo growth of PANC-1 xenografts in nude mice; set-up: species or system BALB/c nude mice; conditions: Mus musculus, ip, vs DMSO solvent control, read-out: Curative effect (inhibition rate %) of tumor weight; for inhibition in vivo at 60 mg/kg: 60 mg/kg intraperitoneal once a day; for inhibition in vivo at 90 mg/kg: 90 mg/kg intraperitoneal once a day
Method: as §1, §2, §3

HDAC3 [5] = test: HDAC3 enzyme activity in nuclear extracts of human tumor xenografts of treated mice; conditions: first value of the pair HDAC3 and HDAC4, SAHA 25 mg/kg
Method: For the detection of the effect of the drugs on enzyme activity of EZH2 and HDAC of in-vivo tumors, the tumors were separately excised after 6 h of medication, total proteins and nucleoproteins were extracted separately to detect and analyze the activity of the enzyme.
(2) 50 μl of diluted sample solution was added into each reaction well, the plate was sealed with a plate-sealing film and reacted at room temperature for 30 min;
(3) the plate-sealing film was carefully peeled off, the liquid was removed, dried, 150 μl of washing liquid was added into each well, stood for 30 s, then the liquid was removed, repeated twice, and dried;
(4) 2 μl of HDAC enzyme or tumor tissue nuclear extracts was respectively uniformly mixed with 28 μl of diluted sample solution, added into the wells, the plate was sealed with the plate-sealing film and reacted at 37° C. for 60 min;
(5) the plate was washed for three times, wherein the operation was the same as that in (3); and a diluted antibody capture working solution was added into each reaction well according to 50 μl/well and reacted on a shaking bed at room temperature for 60 min;
(6) the plate was washed for four times, wherein the operation was the same as that in (3);
(7) a diluted antibody detection working solution was added into each reaction well according to 50 μl/well and reacted at room temperature for 30 min;
(8) the plate was washed for five times, wherein the operation was the same as that in (3);
a color developing agent was added according to 100 μl/well, and performed dark development for 2-10 min;
(9) 50 μl of stop solution was added into each well for stopping the reaction when the color in the well with a standard product turned blue with medium intensity, the color immediately turned yellow from blue after the addition;
(10) the light absorbance (OD value) of each well was measured in sequence at the wavelength of 450 nm; wherein the measurement should be performed within 15 min after addition of the stop solution; and

Dvl-1 = test: Western Blotting, Dvl-1 level; type: cell-based; conditions: human liver cancer cells, Lewis lung cancer cells and other cancer cell lines and tumor tissues, read-out: Effective concentration (IC50) for inhibition of Dvl-1
From the text: as §4, §5

Cyclin D1 = test: Western Blotting, Cyclin D1 level; type: cell-based; conditions: human liver cancer cells, Lewis lung cancer cells and other cancer cell lines and tumor tissues, read-out: Effective concentration (IC50) for inhibition of Cyclin D1
From the text: as §4, §5

SMILES | inhibition in vivo at 60 mg/kg [1] [%] | inhibition in vivo at 90 mg/kg [1] [%] | IC50 (NF-κB) [µM] | IC50 [2] [µM] | EC50 (p21) [µM] | IC50 (HDAC3 [3]) [µM] | IC50 (human neuroma cells D54) [µM] | inhibition in vivo at 60 mg/kg [4] [%] | inhibition in vivo at 90 mg/kg [4] [%] | decrease of HDAC3 enzyme activity/inhibition rate (HDAC3 [5]; A549 tumor grown in vivo) [%* and] | decrease of HDAC3 enzyme activity/inhibition rate (HDAC3 [5]; MCF7 tumor grown in vivo) [%* and] | decrease of HDAC3 enzyme activity/inhibition rate (HDAC3 [5]; MDA-MB231 tumor grown in vivo) [%* and] | decrease of HDAC3 enzyme activity/inhibition rate (HDAC3 [5]; SMMC7721 tumor grown in vivo) [%* and] | IC50 (Dvl-1) [µM] | IC50 (Cyclin D1) [µM]
CCNC(=O)CC[C@@H](NC(=O)c1cc2cc(Br)cc(Br)c2oc1=O)C(=O)OCC [Compound Ih, (R)-2-(6,8-dibromo-2-oxo-2H-benzopyran-3-carboxamido)-5-ethylamino-5-oxo-pentanoic ethyl ester] | 55.1 | 75.1 | < 100 | 57 | < 100 | < 65 | 87 | 51.3 | 67.3 | 57 | 64 | 62 | 60 | < 250 | < 70
CCNC(=O)CCC(NC(=O)c1cc2ccccc2oc1=O)C(=O)OC (stereo not drawn) [Compound Ia, methyl 5-ethylamino-5-oxo-2-(2-oxo-2H-benzopyran-3-carboxamido)pentanoate] | 50.1 | 60.1 | < 125 | 56 ± 10 | < 125 | < 75 | 160 | 55.8 | 60.5 | – | – | – | 60 | < 135 | < 125
